The values below come from patent US20250032383A1, “PERSONAL CARE COMPOSITION” (Conopco, Inc., d/b/a UNILEVER, priority 2021, published 2025).

This experiment has as its system MelaKuits® living skin equivalent models. Nature of the experiment: skin brightening efficacy in UVB-irradiated living skin equivalent models, lightness (L*) by DSM II Color Meter. It is filed as cell-based. How it is done: The skin brightening efficacy were evaluated by using MelaKuits® living skin equivalent models (Biocell, Xi'an, China). A series of identical living skin equivalent models were constructed by following manufacturer's instruction. After the models were constructed, the models were irradiated by UVB with an energy density of 50 mJ/cm^2, followed by culturing in fresh medium with or without actives for one day. Such irradiating and culturing process were repeated by using refreshed same medium for seven times. The lightness (L*) of each model were measured by using a DSM II Color Meter. The measurements of lightness were repeated at least three times. Similar experiments were conducted as that in Example 1 except that niacinamide was used and different batch of live equivalent models were used. The original lightness of the live equivalent models was different from that in Example 1.

Regarding `CCCCCCC(O)CCCCCCCCCCC(=O)O` (stereo not drawn) [12-HSA, 12-hydroxystearic acid], for the setting “Example 1 batch, UVB 50 mJ/cm^2, irradiating and culturing repeated seven times, 10 μM of 12-HSA in medium (UVB + medium only 32.4; blank control 43.4)”, the “Average lightness (L*)” value worked out at 35.2.

Regarding `NC(=O)c1cccnc1` [niacinamide, reference compound], the “Average lightness (L*)” value (Example 2, different batch of models, UVB, 3 wt % of niacinamide in medium (UVB + medium only 66.86; blank control 71.43)) was found to be 71.15.

For the molecule Lysine carboxymethyl cysteinate [LCC], the “improvement of the skin brightening efficacy of niacinamide (in words)” value (LCC 0.27 wt % added to 3 wt % niacinamide, Table 2) is “not capable of improving the skin brightening efficacy of niacinamide”.
